“And” between values parts separate entries of the source, which are not always exact repeats. Identical values can stand only once.

Consider 137 compounds from the pKa sets of Baltruschat and Czodrowski (2020).

For one data set the following is noted: acidic group.
Broadly, the pKa is the pH at which an ionisable group is half protonated. The compound `Nc1c2c(ncn2Cc2ccccc2)nc[n+]1[O-]` yielded a pKa of 11.

Compound `Oc1cc(O)cc(O)c1` showed a pKa of 8.83.

As to `[NH3+]CCCC#CC#CCCC(=O)O`, the pKa turned out to be 4.12.

In the case of `Cc1cc[n+](O)cc1`, the pKa was 1.29.

As to `C[N+](C)(C)O`, the pKa is 4.65.

`Cc1ccc(S(=O)(=O)N(CCNCC(=O)[O-])CC(=O)[O-])cc1` displayed a pKa of 7.83.

On to `O=C1CCC([O-])=C1O`, for which the pKa turned out to be 12.9.

As to `C=C(C)[C@@H]1C[NH2+][C@H](C(=O)O)[C@@H]1CC(=O)O`, the pKa came out at 2.09.

The compound `CCCO` returned a pKa of 16.

The compound `O/N=C(/Cl)c1ccccc1` showed a pKa of 9.8.

The compound `O=P([O-])(O)C([NH2+]Cc1cccnc1)c1ccccc1O` (stereo not drawn) had a pKa of 5.15.

On to `O=C1C=CC(=O)c2c(O)cccc21`, for which the pKa was determined as 8.7.

Take `CC1(C)NC(C)(C)[N+](O)=C1c1ccccc1`: the pKa was determined as 2.06.

Consider `O=C(O)Cc1ccoc1`, for which the pKa was 4.07.

As for `O=C(O)c1ccc(Oc2ccccc2)cc1`, the pKa turned out to be 4.52.

`CC(C#N)(Cc1ccccc1)C(=O)O` (stereo not drawn): the pKa came out at 2.29.

`CC(=O)C(Cc1ccc([N+](=O)[O-])cc1)C(C)=O`: the pKa was 9.54.

In turn, `c1ccc2cc3[nH]cnc3cc2c1` came in with a pKa of 12.5.

For `Oc1c2c(nn1-c1ccccc1)CCCC2`, the pKa was determined as 11.4.

Compound `CCC#CC(=O)O` returned a pKa of 2.6.

`CC([NH3+])c1nnn[nH]1` (stereo not drawn) displayed a pKa of 2.63.

Compound `C[NH2+]CCS` returned a pKa of 8.02.

Compound `O=C(O)[C@H]1C[C@@H]2CC[C@H]1C2` registered a pKa of 5.02.

The compound `O/N=C/c1cccnc1` returned a pKa of 10.3.

The compound `O=C(O)CCCCc1ccccc1` had a pKa of 4.88.

Turning to `Cc1ccc(Cl)c(C(=O)O)c1`, the pKa was found to be 3.12.

`COc1cccc(OC)c1-c1nc2ncccc2[nH]1`: the pKa stood at 11.3.

As for `[NH3+]c1ccccc1C(=O)O`, the pKa was determined as 2.08.

The compound `Cc1nnn[nH]1` came in with a pKa of 5.52.

As to `COCC(=O)O`, the pKa came to 3.53.

`Cc1cccc([Se](=O)O)c1` registered a pKa of 4.8.

`O/N=C1/CCCC(=N\O)/C1=N/O`: the pKa was 8.21 and 8.12.

As for `N#Cc1cccc(O)c1`, the pKa came to 8.63.

As for `CCOP(=O)([O-])NS(=O)(=O)c1ccccc1`, the pKa stood at 6.5.

With `C(C[NH2+]CCc1nnn[nH]1)[NH2+]CCc1nnn[n-]1`, the pKa is 4.09.

In turn, `S=c1[nH]c2cc3c(cc2[nH]1)CCCC3` gave a pKa of 10.4.

For `O=[N+]([O-])Nc1ccccc1`, the pKa was determined as 4.74.

As to `CCc1cc([N+](=O)[O-])cc(CC)c1O`, the pKa came out at 7.73.

`Sc1ccc(Cl)cc1`: the pKa came to 5.82.

As for `CC(C)C[C@H](N)C(N)=O`, the pKa was 7.84.

For `COc1ccc(O)c(CNC(CO)C(=O)[O-])c1` (stereo not drawn), the pKa worked out at 10.4.

Consider `O=C(O)CP`, for which the pKa came to 4.07.

In turn, `COc1cc(CN)ccc1O` gave a pKa of 10.5.

Regarding `OC(O)=C1c2ccccc2-c2ccccc21`, the pKa turned out to be 2.01.

Regarding `CCN(CC)C(=S)NC(=O)c1ccc(Cl)cc1`, the pKa was 8.

`CCCCOc1ccc(O)cc1`: the pKa was 10.2.

`Cc1ccc(OCC(=O)N[C@H]2C(=O)N3[C@H]2SC(C)(C)[C@H]3C(=O)O)cc1` registered a pKa of 2.8.

In the case of `C=C(C)C(C)(C(N)=O)C(=O)O` (stereo not drawn), the pKa came out at 3.42.

For the compound `O=C1CSc2ncnc(N3CCOCC3)c2N1`, the pKa was found to be 10.4.

Compound `c1ccc(-c2nc3ncncc3[nH]2)cc1` displayed a pKa of 8.09.

`Nc1ccc(S(=O)(=O)Nc2cnc(Cl)nc2)cc1` gave a pKa of 5.8.

`[NH3+][C@H]1CCC[C@H](C(=O)O)C1` returned a pKa of 3.85.

For `O=C1CCCC(=O)N1`, the pKa is 11.4.

In turn, `c1cnc2nc[nH]c2c1` yielded a pKa of 11.1.

The compound `Oc1ccc(Cl)cc1C[NH+]1CCCCC1` returned a pKa of 8.14.

Regarding `O=[N+]([O-])c1ccc2cc(O)ccc2c1`, the pKa stood at 7.69.

On to `C[C@H]1CC[C@H](C)C1C(=O)O`, for which the pKa was 4.74.

The compound `O=[N+]([O-])c1ccc(O)c(O)c1` came in with a pKa of 6.74.

Turning to `[O-]c1cccc(O)c1`, the pKa was found to be 11.3.

`O=C(O)CC1NC(=O)c2ccccc2O1` (stereo not drawn) showed a pKa of 4.9.

`CC(C)/C=C/C(=O)O` gave a pKa of 4.7.

`NC(=O)C(N)=S` came in with a pKa of 11.5.

As for `C/C(N=O)=N\O`, the pKa was found to be 5.8.

In turn, `O=[PH]([O-])C(NCc1ccncc1)c1ccccc1O` (stereo not drawn) gave a pKa of 11.9.

The same data set, now with this note: basic group.
`Nc1c2c(ncn2Cc2ccccc2)nc[n+]1[O-]` came in with a pKa of 2.4.

Compound `CN(CO)c1ccccc1` gave a pKa of 3.72.

`C[NH+]1CCN(C(c2ccccc2)c2ccccc2)CC1` came in with a pKa of 2.16.

Consider `Nc1ccc2ncccc2c1`, for which the pKa was 5.63.

Consider `Cc1c[nH]cn1`, for which the pKa was determined as 7.51.

Take `CC(=O)N(C)c1ccccn1`: the pKa came to 2.01.

`CC(O)CN(C)CCO` (stereo not drawn) yielded a pKa of 8.69.

The compound `Nc1c2ccccc2nc2cccc([N+](=O)[O-])c12` came in with a pKa of 7.3.

Turning to `CN[C@H]1C(C)[C@@H]1NC` (stereo partly drawn), the pKa turned out to be 9.03.

With `CCCCCCCN(CCCCCCC)c1ccccc1`, the pKa was 3.33.

`CCN1CCCC1C` (stereo not drawn): the pKa turned out to be 10.6.

In turn, `O=P([O-])(O)C([NH2+]Cc1cccnc1)c1ccccc1O` (stereo not drawn) displayed a pKa of 3.14.

`CC(C)NCC(=O)c1ccc([O-])cc1` had a pKa of 9.58.

For the compound `Cc1cncc(C)[nH+]1`, the pKa is -4.48.

In turn, `CNC(=O)/C=C(\c1ccc2nc(N)n(C3CCCC3)c2c1)c1ccccc1F` returned a pKa of 6.7.

With `Nc1ncnc2c1cnn2CCO`, the pKa was found to be 4.29.

Compound `CNNC1CC[NH+](C(C)C)CC1` returned a pKa of 6.2.

In turn, `COc1ccc(-c2cc3ccncc3[nH]2)c(OC)c1` had a pKa of 8.29.

In the case of `Cn1c(-c2ccccn2)[nH+]c2ccccc21`, the pKa is -1.27.

On to `NC(=O)c1cncc2ccccc12`, for which the pKa came out at 3.8.

The compound `CCN(CC)CC(=O)NC1CCCCC1` registered a pKa of 8.21.

In turn, `CCNCC#CCNCC` returned a pKa of 8.32. The pKa values of the last two compounds are within 0.2 log units of each other.

For the compound `CCC(N)(CO)CO`, the pKa worked out at 8.8.

`c1ccc2cc3[nH]cnc3cc2c1` yielded a pKa of 5.24.

The compound `CCc1c(C)nnc(C)c1C` gave a pKa of 5.17.

`CCNc1nc(N)nc(N)n1` displayed a pKa of 5.23. The pKa values of the last two compounds are within 0.2 log units of each other.

Take `Cc1ccc(C2CN2)cc1` (stereo not drawn): the pKa is 6.76.

`CC(N)(C(=O)[O-])c1ccccc1` (stereo not drawn) came in with a pKa of 9.

`O/N=C/c1cccnc1` had a pKa of 3.94.

With `CCN(CC)c1nc(N)nc(N(CC)CC)n1`, the pKa is 6.28.

Compound `COc1cccc(OC)c1-c1nc2ncccc2[nH]1` came in with a pKa of 4.85.

`O=[N+]([O-])c1cccc2nc3ccccc3c(NCCCO)c12` yielded a pKa of 7.55.

`CC1(C)CCCC(C)(C)N1`: the pKa is 11.2.

Compound `O=Cc1ccccn1` yielded a pKa of 3.86.

In the case of `Cc1cccc(N)c1-c1c(C)cccc1[NH3+]`, the pKa was determined as 2.1.

Compound `Cn1nccc1N` returned a pKa of 4.23.

`Nc1ccc2cnc3ccccc3c2c1` displayed a pKa of 6.88.

As to `NCc1ccccc1[N+](=O)[O-]`, the pKa amounted to 8.59.

On to `CCNN(C)CC`, for which the pKa was found to be 6.81.

In turn, `C1OC1CN(CC1CO1)CC1CO1` (stereo not drawn) registered a pKa of 5.01.

In the case of `CN1CSC[C@H]1C(=O)[O-]`, the pKa came to 6.6.

As to `OCCCCCc1ccncc1`, the pKa worked out at 6.04.

As to `CC(C)c1cccnc1`, the pKa is 5.72.

Compound `CCCN(C)c1ccccc1` yielded a pKa of 5.67.

The compound `CN(C)CCCNc1ccnc2ccccc12` yielded a pKa of 8.85.

For `[NH3+]c1cccc(-c2nc3ccccc3s2)c1`, the pKa came to 0.07.

The compound `NC(=O)CCc1ccccn1` displayed a pKa of 5.09.

On to `[NH3+]CCCNCCC[NH3+]`, for which the pKa turned out to be 8.08.

In turn, `Cc1cncc(C)c1` had a pKa of 6.15.

On to `Cc1nc(C)c(C)[nH+]c1C`, for which the pKa was -2.73.

Consider `CN1CC(O[Si](C)(C)C)C1`, for which the pKa was determined as 9.1.

Take `Clc1ccnc(-c2ccccn2)c1`: the pKa stood at 3.8.

With `COc1ccc(O)c(CNC(CO)C(=O)[O-])c1` (stereo not drawn), the pKa was found to be 8.3.

The compound `Nc1ccc2c(c1)Cc1c(F)cccc1-2` had a pKa of 3.54.

`C[n+]1cnccc1[O-]` displayed a pKa of 1.84.

`Cc1cccc(C)c1C(=N)c1ccccc1` displayed a pKa of 7.71.

Regarding `OCCN1CC[NH+](CCCN2c3ccccc3Sc3ccc(Cl)cc32)CC1`, the pKa came to 3.59.

As for `O=C1C[C@H]2OCC(S(=O)(=O)[O-])=C3CN4CC[C@@]56c7ccccc7N1[C@@H]5[C@@H]2[C@@H]3C[C@@H]46`, the pKa turned out to be 7.54.

Compound `COc1cc(CN)ccc1O` showed a pKa of 8.94.

`CC[NH+](CC)CCCNc1ccnc2ccccc12` displayed a pKa of 8.65.

With `COc1cc(C)ncn1`, the pKa worked out at 3.65.

Compound `Nc1cccc(N)c1` yielded a pKa of 5.04.

Consider `CC1(C)CC(NCCO)CC(C)(C)[NH2+]1`, for which the pKa was found to be 7.42.

In turn, `O=[N+]([O-])c1cc(CN2CCCCC2)c([O-])c2ccccc12` yielded a pKa of 10.7.

Consider `CCc1cc(CC)c(OC)c(C(=O)NC[C@H]2CCCN2CC)c1[O-]`, for which the pKa was found to be 9.54.

The compound `O=C1CSc2ncnc(N3CCOCC3)c2N1` gave a pKa of 2.07.

In turn, `c1ccc(-c2nc3ncncc3[nH]2)cc1` registered a pKa of 2.68.

`O=C(CCN1CCOCC1)c1ccccc1` yielded a pKa of 6.5.

On to `CNCC(C)c1ccccc1` (stereo not drawn), for which the pKa turned out to be 9.87.

As for `c1cnc2nc[nH]c2c1`, the pKa turned out to be 3.95.

Turning to `CN(C)C1CCCCC1`, the pKa worked out at 10.5.

In turn, `CC(C)n1cnc2ccccc21` displayed a pKa of 5.74.

On to `CN(C)CCCCCCCCCCNC(=O)/C=N/[O-]`, for which the pKa came to 10.6.

Consider `CN1CCCN(C)c2cccc3cccc1c23`, for which the pKa was determined as 10.3.

On to `COc1cc(OS(C)(=O)=O)ccc1-c1cn2cccnc2n1`, for which the pKa worked out at 3.95.

In turn, `CN(C)c1ccc(/N=N/c2cccc[nH+]2)cc1` gave a pKa of 2.

As to `Cc1cccnn1`, the pKa was 3.46.

In the case of `c1cc(N2CCCC2)cc[nH+]1`, the pKa is -0.53.

Regarding `CN(C)c1ccc(/C=C/c2cc[n+]([O-])cc2)cc1`, the pKa came to 4.3.

Take `Clc1ccc(C/C(=C\CN2CCCC2)c2ccccc2)cc1`: the pKa was 8.77.

`Cc1ccc(N)cc1C[NH3+]` showed a pKa of 4.67.

Consider `CCN(CC)C(C)(C)C=O`, for which the pKa worked out at 8.3.

The compound `CC1CC[C@H](O)[C@@H](N)C1` (stereo partly drawn) came in with a pKa of 9.5.

`O=[PH]([O-])C(NCc1ccncc1)c1ccccc1O` (stereo not drawn) returned a pKa of 8.05.
